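48-hour exposure; five concentrations; linearly interpolated endpoints. TGI denotes the concentration required for complete inhibition of growth.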
Experiments:
Experiment in all cases: growth of human tumour cells (NCI), 48 h
[1] = system: SW-620 colon
[2] = system: 786-0 renal
[3] = system: A549 NSCLC
[4] = system: SK-MEL-28 melanoma
[5] = system: K-562 leukemia
[6] = system: OVCAR-5 ovarian
[7] = system: HT29 colon
[8] = system: KM12 colon
[9] = system: TK-10 renal
[10] = system: HOP-92 NSCLC
[11] = system: U251 CNS
[12] = system: MOLT-4 leukemia
[13] = system: UACC-62 melanoma
[14] = system: SK-OV-3 ovarian
[15] = system: T-47D breast
[16] = system: OVCAR-3 ovarian
[17] = system: ACHN renal
[18] = system: RXF 393 renal
[19] = system: SNB-19 CNS
[20] = system: HS 578T breast

Row | Compound | TGI [1] [µM] | TGI [2] [µM] | TGI [3] [µM] | TGI [4] [µM] | TGI [5] [µM] | TGI [6] [µM] | TGI [7] [µM] | TGI [8] [µM] | TGI [9] [µM] | TGI [10] [µM] | TGI [11] [µM] | TGI [12] [µM] | TGI [13] [µM] | TGI [14] [µM] | TGI [15] [µM] | TGI [16] [µM] | TGI [17] [µM] | TGI [18] [µM] | TGI [19] [µM] | TGI [20] [µM]
1 | O=C1C=Cc2c(I)sc(I)c21 | 38.1 | 22.8 | > 100 | 44.6 | 56.8 | 94.6 | 68.4 | 50 | 68.5 | 33 | 33.3 | 42.3 | > 100 | > 100 | 41.4 | 39.7 | > 100 | 40.3 | – | –
2 | COC1=CC(=O)C2[C@H]3Cc4ccccc4[C@H]3C2(C)C1=O (stereo partly drawn) | > 100 | > 100 | > 100 | > 100 | > 100 | > 100 | > 100 | > 100 | > 100 | > 100 | > 100 | > 100 | > 100 | > 100 | – | > 100 | > 100 | > 100 | > 100 | –
3 | COc1ccc(N2C(=O)CC(c3c[nH]c4ccccc34)C2=O)cc1 (stereo not drawn) | > 100 | > 100 | > 100 | > 100 | > 100 | > 100 | > 100 | – | > 100 | > 100 | > 100 | > 100 | > 100 | > 100 | – | > 100 | > 100 | > 100 | > 100 | > 100
4 | COC(=O)c1cc(/C=C2\Cc3cc4c(cc3C2=O)CCC4)cc2c1CCC2 | > 100 | > 100 | > 100 | > 100 | > 100 | > 100 | > 100 | > 100 | > 100 | – | > 100 | > 100 | > 100 | > 100 | > 100 | > 100 | > 100 | – | > 100 | > 100
5 | COc1ccc(-n2nnnc2C2(Nc3ccccc3)CCN(Cc3ccccc3)CC2)cc1 | 38.3 | 28 | 45.8 | 26.6 | 15.4 | 48.8 | 21.3 | 18.8 | 40.9 | – | > 100 | – | 31.1 | 86.2 | 45.2 | – | > 100 | 33.8 | 68.5 | 28.8
6 | CCC(/C=C/c1ccccc1)=N\N=C(\C=C\c1ccccc1)CC | > 100 | > 100 | > 100 | > 100 | > 100 | > 100 | > 100 | > 100 | > 100 | – | > 100 | > 100 | > 100 | > 100 | – | > 100 | > 100 | – | > 100 | –
7 | COc1ccc(C2C3=C(CCCC3=O)N(c3ccccc3)C3=C2C(=O)CCC3)cc1 | > 100 | > 100 | > 100 | > 100 | > 100 | > 100 | > 100 | > 100 | > 100 | > 100 | > 100 | > 100 | > 100 | > 100 | – | > 100 | > 100 | 78.7 | > 100 | > 100
8 | C=CCn1c(=S)sc2c(=O)[nH]cnc21 | > 100 | > 100 | > 100 | – | > 100 | > 100 | > 100 | > 100 | > 100 | > 100 | > 100 | > 100 | > 100 | > 100 | – | > 100 | > 100 | – | > 100 | –
9 | N.N.N.N.O=S(=O)([O-])[O-].[Co+3].[OH3+].[OH3+] | > 100 | > 100 | > 100 | > 100 | > 100 | > 100 | > 100 | > 100 | > 100 | > 100 | > 100 | > 100 | > 100 | > 100 | – | > 100 | > 100 | – | > 100 | –
10 | Cn1c(C2CC(C)(C)c3c2c2ccccc2n3C)cc2ccccc21 (stereo not drawn) | > 304 | > 304 | > 304 | > 304 | > 304 | > 304 | > 304 | > 304 | > 304 | > 304 | > 304 | > 304 | > 304 | > 304 | – | > 304 | > 304 | > 304 | > 304 | –
11 | O=C1CCC2(c3ccc(F)cc3)Nc3ncncc3N12 (stereo not drawn) | > 10 | > 10 | > 10 | – | > 10 | > 10 | > 10 | > 10 | > 10 | > 10 | > 10 | > 10 | > 10 | – | – | > 10 | > 10 | – | > 10 | > 10
12 | CCCN1CN(C(C(=O)N[C@@H]2C(=O)N3C(C(=O)O)=C(C)CSC23)c2ccccc2)CSC1=S (stereo partly drawn) | – | > 100 | > 100 | > 100 | > 100 | > 100 | > 100 | > 100 | > 100 | > 100 | > 100 | > 100 | > 100 | > 100 | – | > 100 | > 100 | 82.5 | > 100 | –
13 | N=c1c2ccccc2nc2oc3ccc(Cl)cc3n12 | > 100 | 15.9 | 97 | > 100 | > 100 | 47.1 | > 100 | > 100 | 34.9 | – | 17.8 | > 100 | > 100 | 46.2 | – | 31.4 | 28.4 | 26.1 | > 100 | 20.3
14 | COC(=O)/C(Cl)=C1/CC1COCc1ccccc1 (stereo not drawn) | 45.1 | 42.2 | > 100 | 47.4 | 49.9 | > 100 | 58 | 77.4 | > 100 | 50.4 | – | 53.5 | 66.8 | > 100 | – | 52.5 | 81.6 | 37.8 | > 100 | –
15 | O=C1CSc2ccncc2N1 | > 100 | > 100 | > 100 | > 100 | > 100 | > 100 | > 100 | – | > 100 | – | > 100 | > 100 | > 100 | – | – | > 100 | > 100 | > 100 | > 100 | –
16 | COC(=O)c1c/c(=N\NC(=O)CC(=O)Nc2ccc(C)cc2)c2ccccc2o1 | > 100 | > 100 | > 100 | > 100 | > 100 | > 100 | > 100 | > 100 | > 100 | > 100 | > 100 | > 100 | > 100 | > 100 | – | > 100 | > 100 | > 100 | > 100 | –
17 | O=C(Nc1ccc(F)cc1)c1cc2ccc(O)cc2oc1=Nc1cccc(F)c1 | > 100 | > 100 | – | > 100 | > 100 | > 100 | > 100 | > 100 | – | – | > 100 | > 100 | > 100 | > 100 | > 100 | > 100 | > 100 | – | – | –
18 | Cc1c(C)c2ccc(O)cc2[nH]c1=O | > 100 | > 100 | > 100 | > 100 | > 100 | > 100 | > 100 | > 100 | – | > 100 | > 100 | > 100 | > 100 | – | > 100 | > 100 | > 100 | > 100 | > 100 | –
19 | Cc1cc(-c2ccc(Cl)cc2)c(C#N)c(=S)n1C1OC(CO)C(O)C(O)C1O (stereo not drawn) | > 100 | > 100 | > 100 | > 100 | – | > 100 | > 100 | > 100 | > 100 | – | – | > 100 | > 100 | > 100 | > 100 | > 100 | > 100 | > 100 | > 100 | > 100
20 | COc1ccc(C2S/C(=C\c3cccc([N+](=O)[O-])c3)C(=O)N2NC(=O)Cc2ccccc2)cc1 (stereo not drawn) | > 100 | > 100 | > 100 | > 100 | > 100 | > 100 | > 100 | > 100 | > 100 | > 100 | > 100 | > 100 | > 100 | > 100 | – | – | > 100 | > 100 | – | –
21 | Cc1ccccc1Nc1cn(CCOc2ccccc2)c(=O)n(CCOc2ccccc2)c1=O | > 100 | > 100 | > 100 | > 100 | > 100 | > 100 | > 100 | > 100 | – | > 100 | > 100 | > 100 | > 100 | – | – | > 100 | > 100 | > 100 | – | > 100
22 | O=C1/C(=C/c2cccc3ccccc23)Cc2ccccc21 | > 100 | 48.3 | > 100 | > 100 | > 100 | > 100 | > 100 | > 100 | > 100 | – | 52 | > 100 | > 100 | 47.2 | – | 91.3 | > 100 | 39.2 | 64 | 73.3
23 | Cc1ccc(C(=O)Nc2ccc(CP(=O)(O)O)cc2)cc1NC(=O)Nc1cc(C(=O)Nc2ccc(CP(=O)(O)O)cc2)ccc1C | > 100 | > 100 | > 100 | > 100 | – | > 100 | > 100 | > 100 | > 100 | – | > 100 | > 100 | > 100 | > 100 | > 100 | > 100 | – | > 100 | – | > 100
24 | CC1(C)CC[C@]2(C(=O)O)CC[C@]3(C)C(=CC[C@@H]4[C@@]5(C)CC[C@@H]6OC(C)(C)OC[C@@]6(C)[C@@H]5CC[C@]43C)[C@H]2C1 | 29 | 24 | – | 29.2 | 40.6 | 32.2 | 18.8 | – | 32.7 | – | 20.4 | 34.3 | 25.4 | 91.8 | 38.8 | 18.5 | 15.7 | – | 96.2 | –
25 | N#C/C(N)=C(\C#N)N=CNc1ccccc1N | > 100 | > 100 | > 100 | > 100 | > 100 | > 100 | > 100 | > 100 | > 100 | – | > 100 | > 100 | > 100 | > 100 | > 100 | > 100 | > 100 | – | > 100 | > 100
26 | CC(C)(Cc1ccccc1)Cc1cc(O)ccc1O | 49.6 | 29 | > 100 | 47.2 | 44.2 | 88.8 | 48.5 | 32.1 | 95.9 | 36.5 | 32.2 | 49.5 | 61.8 | 71 | 23.1 | 25.3 | 66.1 | 28.9 | 48.7 | –
27 | Clc1ccc(N=Cc2cc3cc(Br)ccc3nc2Cl)cc1 | > 50 | > 50 | – | > 50 | > 50 | > 50 | > 50 | > 50 | – | > 50 | – | > 50 | – | – | > 50 | – | – | > 50 | – | –

Reference: PubChem BioAssay (NCI)
